These results are taken from ChEMBL document CHEMBL1201862, “PubChem BioAssay data set” (2004).

Common to all, as to test: NCI-60 cell line screen, 48 h
The subject of assay [1] is HCT-116.
Assay [2] relates to CCRF-CEM.
Assay [3] relates to SW-620.
The test system of assay [4] is SNB-19.
Assay [5] deals with SK-MEL-5.
In assay [6] the test system is HL-60.
The test system of assay [7] is OVCAR-3.
For assay [8], the system named is SNB-75.
Assay [9] deals with UO-31.
Assay [10] deals with Malme-3M.
In assay [11] the test system is UACC-257.
Assay [12] concerns SK-MEL-28.
For assay [13], the system named is ACHN.
The subject of assay [14] is 786-0.
Assay [15] deals with KM12.

SMILES strings stand for the structures.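 Tested at 5 concentrations; 48 h exposure; 96-well plates; endpoints linearly interpolated, else capped at highest concentration. At the GI50, growth is halved.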 Activity calls are given as the source filed them. Rule as the data show it: active = GI50 up to about 1.1 µM and inactive = higher.

Turning to `O=c1c2ccccc2n2n1CC(O)C2` (stereo not given), the GI50 in [1], in assay [2], in assay [3], in assay [4], in assay [5] and in [6] was > 100 µM (inactive) each time. Moreover, the GI50 in [7] is > 100 µM (inactive); in assay [8] it was > 100 µM (inactive); in [9] it was > 100 µM (inactive); in assay [10], 4.56 µM (inactive); in assay [11] it was > 100 µM (inactive); in [12] it was > 100 µM (inactive). In addition, the GI50 in assay [13] is 2.14 µM (inactive); in assay [14], > 100 µM (inactive); in assay [15], > 100 µM (inactive).
As to `CCN(CC)c1ccc2c(c1)Oc1ccc(N(CC)CC)cc1C21Oc2ccccc2-c2c1c1ccccc1n2CC` (stereo not given), the GI50 is 1.05 µM (active) in [1]; 1.44 µM (inactive) in [2]; 3.58 µM (inactive) in assay [3]; 6.87 µM (inactive) in assay [4]; 1.56 µM (inactive) in assay [5]; 1.25 µM (inactive) in assay [6]. Further, the GI50 was 1.25 µM (inactive) in [7]; > 100 µM (inactive) in assay [8]; 1.43 µM (inactive) in [9]; 1.73 µM (inactive) in assay [10]; 2.89 µM (inactive) in [11]; 2 µM (inactive) in assay [12]. Moreover, the results for the GI50 in assay [13] and in assay [14] were 1.32 µM (inactive) and 4.05 µM (inactive), respectively.
Turning to `ClC[Si]12OCCN(CCO1)CCO2`, the GI50 in assay [1], in [2], in [3], in [4], in assay [5] and in [6] was > 100 µM (inactive) in each case. Moreover, the GI50 in [7], in assay [8], in [9], in assay [10], in assay [11] and in assay [12] was > 100 µM (inactive) each time. Further, the GI50 in assay [13], in assay [14] and in assay [15] was > 100 µM (inactive) throughout.
As to `Cc1ccc(C)c(NC2=NC(=O)C(CC(=O)Nc3ccc(Cl)cc3Cl)S2)c1` (stereo not given), the GI50 in assay [2] is 41.4 µM (inactive); in assay [3], > 100 µM (inactive); in [4], 48.5 µM (inactive); in assay [5] it was > 100 µM (inactive); in [6] it was > 100 µM (inactive); in [7] it was 49.9 µM (inactive). The GI50 is 44.7 µM (inactive) in assay [8]; > 100 µM (inactive) in [9]; 70.5 µM (inactive) in assay [10]; > 100 µM (inactive) in [11]; 77.6 µM (inactive) in assay [12]; > 100 µM (inactive) in [13]. Further, the GI50 in assay [14] is 51.8 µM (inactive); in assay [15], 52.6 µM (inactive).
For `CCC1C2C=CC(CC2)N1S(=O)(=O)c1ccc(C)cc1` (stereo not given), the GI50 in [1] is 30.9 µM (inactive); in assay [2] it was 22.4 µM (inactive); in assay [3] it was 16.8 µM (inactive); in assay [4], 24.4 µM (inactive); in assay [5], 18.4 µM (inactive); in [6], 4.22 µM (inactive). Further, the GI50 in assay [7] was 33.7 µM (inactive); in assay [8], > 10 µM (inactive); in [9] it was 12.9 µM (inactive); in assay [10] it was 21.4 µM (inactive); in assay [11] it was 20.9 µM (inactive); in [13], 35.9 µM (inactive). Also, the GI50 is 31.9 µM (inactive) in assay [14] and 24.4 µM (inactive) in [15].
Regarding `COC(=O)/C(=N\NC(=O)c1ccccc1O)C(C#N)c1ccccc1` (stereo not given), the GI50 in assay [1] is 17.3 µM (inactive); in assay [2] it was 19.4 µM (inactive); in assay [3] it was 23.5 µM (inactive); in assay [4] it was 23.2 µM (inactive); in assay [5], 22 µM (inactive); in [6], 16.3 µM (inactive). For the same compound, the GI50 in assay [7] is 16.6 µM (inactive); in assay [8] it was 22.5 µM (inactive); in [9], 12.9 µM (inactive); in assay [10], 21.4 µM (inactive); in assay [11] it was 25.9 µM (inactive); in assay [12], > 50 µM (inactive). The GI50 in assay [13] was 19.7 µM (inactive); in assay [14], 17.4 µM (inactive); in assay [15], 24.1 µM (inactive).
For `COc1ccc(/C=C/c2cc(OC)c(OC)c(OC)c2)cc1`, the GI50 in [1] was 2.86 µM (inactive); in assay [2] it was 1.66 µM (inactive); in assay [3] it was 5.77 µM (inactive); in assay [4] it was 13.6 µM (inactive); in assay [5], 3.68 µM (inactive); in [6] it was 2.75 µM (inactive). In addition, the GI50 is 3.26 µM (inactive) in [7]; 3.43 µM (inactive) in [8]; 4.68 µM (inactive) in assay [9]; 3.27 µM (inactive) in [10]; > 100 µM (inactive) in assay [11]; 18.7 µM (inactive) in [12]. The GI50 in [13] was 5.98 µM (inactive); in assay [14], 11.1 µM (inactive); in [15], 3.3 µM (inactive).
In the case of `Cc1c2ccccc2c(C)c2c3c(ccc12)C(=O)C=CC3=O`, the GI50 is 22.5 µM (inactive) in [1]; 2.49 µM (inactive) in [2]; 21.6 µM (inactive) in [3]; > 100 µM (inactive) in assay [4]; 37.7 µM (inactive) in assay [5]; 2.15 µM (inactive) in [6]. Also, the GI50 in assay [7] is 17.8 µM (inactive); in assay [8] it was > 63.5 µM (inactive); in assay [9] it was 18.2 µM (inactive); in assay [10], 29 µM (inactive); in assay [11], 16.3 µM (inactive); in assay [12] it was 30.7 µM (inactive). Also, the GI50 in [13] is 17.8 µM (inactive); in [14], 25.7 µM (inactive); in assay [15], 27.3 µM (inactive).
Consider `CN(C)CCNC(=O)c1ccc2ccc3cccnc3c2n1`, for which the GI50 in [1] is 4.02 µM (inactive); in [2], 18.9 µM (inactive); in assay [3], 5.98 µM (inactive); in assay [4], 19.6 µM (inactive); in assay [5] it was 13.9 µM (inactive); in [6], 26.4 µM (inactive). Also, the GI50 was 24.7 µM (inactive) in assay [7]; 16 µM (inactive) in assay [8]; 12.2 µM (inactive) in assay [9]; 13.5 µM (inactive) in assay [10]; 15.3 µM (inactive) in assay [11]; 27.9 µM (inactive) in assay [12]. Further, the results for the GI50 in assay [13], in assay [14] and in [15] were 7.45 µM (inactive), 11.1 µM (inactive) and 18.2 µM (inactive), respectively.
For `Cc1c(Cl)cccc1NC(=O)C(=O)C(C(=O)c1ccccc1-c1ccccc1)C1OC(=O)c2ccccc21` (stereo not given), the GI50 in [1] is 12.5 µM (inactive); in [2], 19.8 µM (inactive); in [3], 21.3 µM (inactive); in assay [5] it was 15.7 µM (inactive); in assay [6], 16.8 µM (inactive); in assay [7], 16 µM (inactive). Moreover, the GI50 in assay [8] is 19.3 µM (inactive); in assay [9] it was 20.4 µM (inactive); in assay [10], 12.7 µM (inactive); in [11] it was 13.5 µM (inactive); in [12] it was 19 µM (inactive); in assay [14], 16.6 µM (inactive). For the same compound, in assay [15], the GI50 was 18.5 µM (inactive).
On to `COc1cc2c(c(OC)c1OC)-c1ccc(SC)c(=O)cc1C(CC(=O)Oc1cccc([N+](=O)[O-])c1)C2` (stereo not given), for which the GI50 is 0.384 µM (active) in assay [1]; 0.745 µM (active) in assay [2]; 0.4 µM (active) in assay [3]; 4.62 µM (inactive) in [4]; 0.592 µM (active) in assay [5]; 0.255 µM (active) in [6]. Besides, the GI50 in [7] was 0.276 µM (active); in assay [8], 0.268 µM (active); in assay [9], 2.76 µM (inactive); in assay [10], 0.36 µM (active); in assay [11], 2.89 µM (inactive); in [12] it was 0.546 µM (active). The GI50 in assay [13] was 0.891 µM (active); in assay [14], 0.473 µM (active); in assay [15], 0.424 µM (active).
Regarding `O=S(=O)(Cc1ccccc1)SCc1ccccc1`, the GI50 in assay [1] is 10.1 µM (inactive); in assay [2] it was 3.24 µM (inactive); in assay [3], 4.37 µM (inactive); in [4], 33.6 µM (inactive); in [5], 21.4 µM (inactive); in assay [6], 5.07 µM (inactive). In addition, the GI50 in assay [7] was 23.4 µM (inactive); in assay [8], 33.9 µM (inactive); in assay [9], 61.4 µM (inactive); in [10] it was 27.3 µM (inactive); in assay [11] it was 24.3 µM (inactive); in assay [12], 34.1 µM (inactive). Besides, the GI50 in [13] is 39.6 µM (inactive); in assay [14], 22.7 µM (inactive); in [15], 32.4 µM (inactive).
As for `CC1CCC[P+](Cc2ccccc2)(c2ccccc2)CC1` (stereo not given), the GI50 in [2] is 42.3 µM (inactive); in assay [3], 94.4 µM (inactive); in [4], 46.5 µM (inactive); in assay [5], 14.5 µM (inactive); in [6], 14.8 µM (inactive); in assay [8] it was 40.3 µM (inactive). Also, the GI50 in assay [9] was > 100 µM (inactive); in assay [10] it was 4.99 µM (inactive); in [12] it was 41.2 µM (inactive); in assay [13], > 100 µM (inactive); in assay [14] it was > 100 µM (inactive).
Regarding `COC1OC(CO)C(O)C1N` (stereo not given), the GI50 in assay [1], in assay [2], in assay [3], in assay [4], in assay [5] and in assay [6] was > 100 µM (inactive) in each case. Besides, the GI50 in [7], in assay [8], in [10], in assay [11], in assay [12] and in assay [13] was > 100 µM (inactive) each time. Besides, the GI50 in [14] and in assay [15] was > 100 µM (inactive) throughout.
